For assay [1], the system named is Orobanche cumana Wallr. seeds. The experiment in a line: Germination of preconditioned Orobanche cumana seeds on glass fiber filter paper in petri dishes. The note with it: mean, N = 5 × 100 seeds, seed lot IN153. In kind it is in vivo. How it is done: The effect of compounds of Formula (I) on germination of Orobanche cumana Wallr. seeds was evaluated on glass fiber filter paper (GFFP) in petri dishes. Seeds were preconditioned at moisture and suitable temperature to become responsive to the specific chemical germination stimulants.
Test compounds were dissolved in DMSO (10 000 mg l^−1) and stored at room temperature in a desiccators with desiccants. The stock solutions were dissolved with deionised water to the appropriate final test concentration.
Seeds of O. cumana race ‘F’ (IN153) were collected from a sunflower field in Manzanilla (Seville, Spain) in 2006 and stored at room temperature. To separate seeds from heavy organic debris, a modified sucrose floatation technique as described by Hartman & Tanimonure (Plant Disease (1991), 75, p. 494) was applied. Seeds were filled into a separation funnel and stirred in water. When seeds floated to the surface, the water fraction containing heavy debris was discarded. Seeds were re-suspended in 2.5M sucrose solution (specific gravity of 1.20) and heavy debris was allowed to settle down for 60 min After removing debris, seeds were disinfected in 1% sodium hypochlorite solution and 0.025% (v/v) Tween 20 for 2 min. The seeds were decanted onto two layers of cheesecloth, rinsed with sterile deionised water and re-suspended in sterile deionised water. Two ml of the seed suspension containing approximately 150-400 seeds were spread evenly on two layers of sterile glass fiber filter paper disc ([…]) in Petri dishes (Ø9 cm). After wetting the discs with 3 ml sterile deionised water, petri dishes were sealed with parafilm. Seeds were incubated for 10 days at 20° C. in the dark for seed conditioning. The upper disc with conditioned seeds was briefly dried, transferred to a petri dish lined with a dry GFFP disc, and wetted with 6 ml of the appropriate test solution. The compounds of Formula (I) were tested at concentrations of 0.001, 0.01, 0.1, or 1 mg l^−. The strigolactone analogue GR24 was included as positive control and 0.01% DMSO as negative control. All treatments were tested in five replicates. Seeds were re-incubated at 20° C. in the dark and examined for germination 10 days later. The radicles of germinated seeds were stained for 5 min with blue ink (MIGROS, Switzerland) in 5% acetic acid according to Long et al. (Seed Science Research (2008), 18, p. 125). After staining, seeds were photographed using a camera stand mounted with a digital SLR camera (Canon EOS 5D). Germination of 100 seeds per replicate was evaluated on digital images. Seeds were considered germinated when the radicle protruded from the seed coat.

In assay [2] the test system is Brassica oleracea cv Botrytis (temperate cauliflower) seeds. As to the kind of experiment: Paper germination test, temperate cauliflower seeds, 10° C. in the light. In kind it is in vivo. The conditions noted are these: 25 μM, sets A and B separate experiments. Here is the method: The effect of compounds of Formula (I) on the germination of Brassica oleracea cv Botrytis or common cauliflower was tested on two types of cauliflowers: temperate types and tropical types. These two types were chosen because they display different sensitivities to the light conditions and temperature during germination. Germination of a sensitive temperate type is inhibited by light at 10° C. while for the tropical types germination at 20° is stimulated by the presence of light.
The temperate seed batches tested are part of commercially produced seed batches of various varieties which are known to be sensitive to light at 10° C. These seeds were harvested and cleaned according standard commercial procedures. Ready seed batches were used (Ready indicates the processing level of these seeds: they have been cleaned and sized but received no other treatments). The tropical seed batches tested are part of seed batches produced as basic seed (for maintenance of the parental line) and were processed accordingly.
Germination was assessed using the standard paper germination test for Brassica: Fifty seeds were placed on blue germination paper, which was moistened with the appropriate solutions, in closed oblong germination boxes. Each condition was tested in duplo. Germination boxes were placed in controlled germination cabinets with the appropriate temperature and light conditions. Germination of seeds was counted at regular intervals. Seeds were considered to be germinated when the radical had protruded the testa and endosperm (radical size approximately 1 mm)
Test compounds were dissolved in DMSO at a concentration of 50 mM and stored at −20° C. The strigolactone analogue GR24 (commercially available as a racemic mixture of 2 diastereoisomers, referred to as “synthetic strigolactone GR-24” and first prepared by Johnson A. W. & all, Journal of the Chemical Society, Perkin Transactions 1, 1981, page 1734-1743) was included as positive control. Germination solutions were prepared by diluting the stock solutions with demineralized water till 25 μM. As control solutions demineralized water and a 0.05% v/v DMSO solution were used.

Setting [3] is: Table B3, concentration 0.001 mg 1^−1, DMSO control 0% germination.
[4] abbreviates: Table B3, concentration 0.01 mg 1^−1, DMSO control 0% germination.
[5] abbreviates: Table B3, concentration 0.1 mg 1^−1, DMSO control 0% germination.
[6] abbreviates: Table B1, concentration 0.001 mg 1^−1, DMSO control 0.4% germination.
[7] abbreviates: Table B1, concentration 0.1 mg 1^−1, DMSO control 0.4% germination.
The mark [8] stands for this setting: Table B1, concentration 1 mg 1^−1, DMSO control 0.4% germination.
The mark [9] stands for this setting: Table B2, concentration 0.01 mg 1^−1, DMSO control 2.4% germination.
Setting [10] is: Table B2, concentration 0.1 mg 1^−1, DMSO control 2.4% germination.
[11] abbreviates: Table B2, concentration 1 mg 1^−1, DMSO control 2.4% germination.
The mark [12] stands for this setting: temperate cauliflower Spacestar seed batch 11B313 (cold-sensitive).
Where [13] appears, read: temperate cauliflower Spacestar seed batch 11B314 (not cold sensitive).

As to `CC1=CC(O/C=C2\CCC(c3ccccc3)NC2=O)OC1=O` (stereo not shown) [Ia-12, (3E)-3-[(4-methyl-5-oxo-2H-furan-2-yl)oxymethylene]-6-phenyl-piperidin-2-one], the results for the “Germination (%)” value in assay [1] (setting [3]), in assay [1] (setting [4]) and in assay [1] (setting [5]) were 93.3%, 86.8% and 92.4%, respectively.

For `CC1=CC(O/C=C2/C(=O)N(C(=O)OC(C)(C)C)C3C=CCC23)OC1=O` (stereo not shown) [Ib-1, tert-butyl (3E)-3-[(4-methyl-5-oxo-2H-furan-2-yl)oxymethylene]-2-oxo-4,6a-dihydro-3aH-cyclopenta[b]pyrrole-1-carboxylate], the “Germination (%)” value came out at 0% in assay [1] (setting [6]), 25.8% in assay [1] (setting [7]) and 92.6% in assay [1] (setting [8]).

As to `CC1=CC(O/C=C2\CCC(c3ccccc3)N(C(=O)OC(C)(C)C)C2=O)OC1=O` (stereo not shown) [Ib-12, tert-butyl (3E)-3-[(4-methyl-5-oxo-2H-furan-2-yl)oxymethylene]-2-oxo-6-phenyl-piperidine-1-carboxylate], the “Germination (%)” value was 91% in assay [1] (setting [3]), 89% in assay [1] (setting [4]) and 90.2% in assay [1] (setting [5]).

Consider `CC1=CC(O/C=C2\CCCCN(C(=O)OC(C)(C)C)C2=O)OC1=O` (stereo not shown) [Ib-13, tert-butyl (3E)-3-[(4-methyl-5-oxo-2H-furan-2-yl)oxymethylene]-2-oxo-azepane-1-carboxylate], for which the “Germination (%)” value in assay [1] (Concentration 0.01 mg l^-1, 10 days at 20° C. in the dark) is on record as 48%; in assay [1] (Concentration 0.01 mg l^-1 as printed, 10 days at 20° C. in the dark), 83%; in assay [1] (Concentration 1 mg l^-1, 10 days at 20° C. in the dark), 90.8%.

Consider `CC1=CC(O/C=C2\CC(C)N(C(=O)OC(C)(C)C)C2=O)OC1=O` (stereo not shown) [Ib-6, tert-butyl (3E)-5-methyl-3-[(4-methyl-5-oxo-2H-furan-2-yl)oxymethylene]-2-oxo-pyrrolidine-1-carboxylate], for which the “Germination (%)” value in assay [1] (setting [6]) was determined as 0.4%; in assay [1] (setting [7]), 1.8%; in assay [1] (setting [8]) it was 5.6%.

With `CC1=CC(O/C=C2/C(=O)NC3CCCC23)OC1=O` (stereo not shown) [Ia-2, (3E)-3-[(4-methyl-5-oxo-2H-furan-2-yl)oxymethylene]-1,3a,4,5,6,6a-hexahydrocyclopenta[b]pyrrol-2-one], the “Germination (%)” value came to 75.4% in assay [1] (setting [9]), 65.4% in assay [1] (setting [10]) and 83.4% in assay [1] (setting [11]).

Regarding `CC1=C[C@H](O/C=C2/C(=O)N[C@@H]3C=CC[C@H]23)OC1=O` [Ia-1′, (3E,3aR,6aR)-3-[[(2R)-4-methyl-5-oxo-2H-furan-2-yl]oxymethylene]-1,3a,4,6a-tetrahydrocyclopenta[b]pyrrol-2-one], the “Germination (%)” value in assay [1] (Table B6, concentration 0.001 mg 1^−1, DMSO control 2.4% germination) amounted to 68.0%; in assay [1] (Table B6, concentration 0.1 mg 1^−1, DMSO control 2.4% germination) it was 55.3%; in assay [1] (Table B6, concentration 1 mg 1^−1, DMSO control 2.4% germination), 54.8%.

In the case of `CC1=CC(O/C=C2\CC(C)N(c3ccccc3)C2=O)OC1=O` (stereo not shown) [I-4, (3E)-5-methyl-3-[(4-methyl-5-oxo-2H-furan-2-yl)oxymethylene]-1-phenyl-pyrrolidin-2-one], the “Germination (%)” value in assay [1] (setting [9]) turned out to be 0.6%; in assay [1] (setting [10]), 1%; in assay [1] (setting [11]) it was 18.2%.

Consider `CC1=CC(O/C=C2\CCN(C(=O)OC(C)(C)C)C2=O)OC1=O` (stereo not shown) [Ib-8, tert-butyl (3E)-3-[(4-methyl-5-oxo-2H-furan-2-yl)oxymethylene]-2-oxo-pyrrolidine-1-carboxylate], for which the “Germination (%)” value is 0.2% in assay [1] (setting [9]), 2.8% in assay [1] (setting [10]) and 1.4% in assay [1] (setting [11]).

Regarding `CC1=CC(O/C=C2\CCN(c3ccccc3)C2=O)OC1=O` (stereo not shown) [I-3, (3E)-3-[(4-methyl-5-oxo-2H-furan-2-yl)oxymethylene]-1-phenyl-pyrrolidin-2-one], the “Germination (%)” value in assay [1] (setting [9]) was 0%; in assay [1] (setting [10]), 1.6%; in assay [1] (setting [11]), 19.2%.

Consider `CC1=CC(O/C=C2\CC(c3ccccc3)N(C(=O)OC(C)(C)C)C2=O)OC1=O` (stereo not shown) [Ib-10, tert-butyl (3E)-3-[(4-methyl-5-oxo-2H-furan-2-yl)oxymethylene]-2-oxo-5-phenyl-pyrrolidine-1-carboxylate], for which the “Germination (%)” value came to 72.8% in assay [1] (setting [3]), 72.4% in assay [1] (setting [4]) and 71.8% in assay [1] (setting [5]).

Consider `CC1=CC(O/C=C2\CCNC2=O)OC1=O` (stereo not shown) [Ia-8, (3E)-3-[(4-methyl-5-oxo-2H-furan-2-yl)oxymethylene]pyrrolidin-2-one], for which the “Gmax (%), total germination as percentage of sown seeds” value in assay [2] (setting [12]) came out at 77.0%; in assay [2] (setting [13]), 93.0%. In addition, the “stimulation (%), extra germination compared to the DMSO treatment, as percentage of the germination in the DMSO treatment” value in assay [2] (setting [12]) is reported as 42.6%; in assay [2] (setting [13]), 8.1%.

`CC1=CC(O/C=C2/C(=O)N(C(=O)OC(C)(C)C)C3CCCC23)OC1=O` (stereo not shown) [Ib-2, tert-butyl (3E)-3-[(4-methyl-5-oxo-2H-furan-2-yl)oxymethylene]-2-oxo-4,5,6,6a-tetrahydro-3aH-cyclopenta[b]pyrrole-1-carboxylate]: the “Germination (%)” value in assay [1] (setting [6]) came to 0%; in assay [1] (setting [7]) it was 18.2%; in assay [1] (setting [8]), 54.8%.

With `CC1=CC(O/C=C2\CCCN(c3ccccc3)C2=O)OC1=O` (stereo not shown) [I-5, (3E)-3-[(4-methyl-5-oxo-2H-furan-2-yl)oxymethylene]-1-phenyl-piperidin-2-one], the “Germination (%)” value in assay [1] (setting [9]) is on record as 1%; in assay [1] (setting [10]), 0%; in assay [1] (setting [11]), 42.2%.

As for `CC1=CC(O/C=C2\CC(=O)N(C)C2=O)OC1=O` (stereo not shown) [I-7, (3E)-1-methyl-3-[(4-methyl-5-oxo-2H-furan-2-yl)oxymethylene]pyrrolidine-2,5-dione], the results for the “Germination (%)” value in assay [1] (setting [9]), in assay [1] (setting [10]) and in assay [1] (setting [11]) were 1%, 1.4% and 17.2%, respectively.

Values taken from patent US9119398B2, “Plant growth regulating compounds” (Syngenta Participations AG, priority 2012, dated 2015).
